In assay [1] the test system is Human immunodeficiency virus. Nature of the assay: microbe, parasite or virus in culture. The settings on record: Human immunodeficiency virus 1, MT4.
Description: Antiviral activity against vesicular stomatitis virus G-pseudotyped Human immunodeficiency virus infected in human MT-4 cells assessed as inhibition of viral replication
The test system of assay [2] is Human immunodeficiency virus 1. Type of assay: functional, organism-based. The settings on record: Human immunodeficiency virus 1, 3B, MT4.
Assay [3] relates to Human immunodeficiency virus 1. Nature of the assay: Antiviral activity against Human immunodeficiency virus 1 Ba-L infected in human PBMCs assessed as inhibition of viral replication. Type of assay: functional, organism-based.
Assay [4] addresses T1, Human immunodeficiency virus type 1 integrase (Human immunodeficiency virus 1, UniProt Q7ZJM1). Put plainly: Displacement of 20 nM [3H]GSK304649 from Human immunodeficiency virus 1 integrase by scintillation proximity assay. A general note: Scintillation proximity formats need no separation of bound from free tracer.
Assay [5] has as its system Human immunodeficiency virus 1. Format: functional, organism-based. The settings on record: NL432, MT4.
Assay [6] relates to Human immunodeficiency virus 1. Format: functional, organism-based. The settings on record: NL432, MT4. The source holds these as a separate data set.
In assay [7] the test system is Human immunodeficiency virus 1. Type of assay: functional, organism-based. The settings on record: NL432, MT4. The source holds these as a separate data set.
Assay [8] relates to Human immunodeficiency virus 1. Nature of the assay: Antiviral activity against INI-resistant Human immunodeficiency virus 1 expressing integrase Q148K mutant gene infected in human HeLa-CD4 cells after 3 days. Type of assay: functional, organism-based.
Assay [9] deals with Human immunodeficiency virus 1. Nature of the assay: Antiviral activity against RTI-resistant Human immunodeficiency virus 1. Format: functional, organism-based.
In assay [10] the test system is Human immunodeficiency virus 1. Nature of the assay: Antiviral activity against INI-resistant Human immunodeficiency virus 1 expressing integrase S153Y mutant gene infected in human HeLa-CD4 cells after 3 days. Format: functional.
Assay [11] concerns the target T1, Human immunodeficiency virus type 1 integrase. Put plainly: Displacement of [3H]GSK304649 from Human immunodeficiency virus 1 integrase by scintillation proximity assay. In general terms: Loss of bound radioactivity is the signal in a displacement assay; it reports binding, not function.
Assay [12] concerns Human immunodeficiency virus 1. Nature of the assay: Antiviral activity against INI-resistant Human immunodeficiency virus 1 expressing integrase T66I mutant gene infected in human HeLa-CD4 cells after 3 days. Format: functional.
The subject of assay [13] is Human immunodeficiency virus 1. Nature of the assay: Antiviral activity against INI-resistant Human immunodeficiency virus 1 expressing integrase Q146R mutant gene infected in human HeLa-CD4 cells after 3 days. Format: functional.
Assay [14] relates to Human immunodeficiency virus 1. Put plainly: Antiviral activity against INI-resistant Human immunodeficiency virus 1 expressing integrase P145S mutant gene infected in human HeLa-CD4 cells after 3 days. Type of assay: functional.
Assay [15] deals with Human immunodeficiency virus 1. Put plainly: Antiviral activity against INI-resistant Human immunodeficiency virus 1 expressing integrase F121Y mutant gene infected in human HeLa-CD4 cells after 3 days. Type of assay: functional, organism-based.
The test system of assay [16] is Human immunodeficiency virus 1. Nature of the assay: Antiviral activity against INI-resistant Human immunodeficiency virus 1 expressing integrase M154I mutant gene infected in human HeLa-CD4 cells after 3 days. Format: functional.
In assay [17] the test system is Human immunodeficiency virus 1. Put plainly: Antiviral activity against INI-resistant Human immunodeficiency virus 1 expressing integrase T66K mutant gene infected in human HeLa-CD4 cells after 3 days. Type of assay: functional, organism-based.
For assay [18], the system named is Human immunodeficiency virus 1. Put plainly: Antiviral activity against INI-resistant Human immunodeficiency virus 1 expressing integrase T124A mutant gene infected in human HeLa-CD4 cells after 3 days. Type of assay: functional.
In assay [19] the test system is Human immunodeficiency virus 1. Put plainly: Antiviral activity against PI-resistant Human immunodeficiency virus 1. Type of assay: functional, organism-based.
Assay [20] concerns Human immunodeficiency virus 1. Put plainly: Antiviral activity against INI-resistant Human immunodeficiency virus 1 expressing integrase N155S mutant gene infected in human HeLa-CD4 cells after 3 days. Type of assay: functional, organism-based.
For assay [21], the target named is T1, Human immunodeficiency virus type 1 integrase. Nature of the assay: Inhibition of Human immunodeficiency virus 1 integrase by strand transfer scintillation proximity assay.
In assay [22] the test system is Human immunodeficiency virus 1. Put plainly: Antiviral activity against INI-resistant Human immunodeficiency virus 1 expressing integrase E92Q mutant gene infected in human HeLa-CD4 cells after 3 days. Type of assay: functional.
For assay [23], the system named is Human immunodeficiency virus 1. Put plainly: Antiviral activity against Human immunodeficiency virus 1 Ba-L infected in human PBMCs assessed as inhibition of viral replication in presence of human serum. Type of assay: functional, organism-based.
Assay [24] deals with Human immunodeficiency virus 1. Put plainly: Antiviral activity against INI-resistant Human immunodeficiency virus 1 expressing integrase Q148R mutant gene infected in human HeLa-CD4 cells after 3 days. Format: functional, organism-based.

SMILES strings stand for the structures. The source made the active and inactive calls. No cut-off for these calls is given here.

T1 sequence (Q7ZJM1 whole entry): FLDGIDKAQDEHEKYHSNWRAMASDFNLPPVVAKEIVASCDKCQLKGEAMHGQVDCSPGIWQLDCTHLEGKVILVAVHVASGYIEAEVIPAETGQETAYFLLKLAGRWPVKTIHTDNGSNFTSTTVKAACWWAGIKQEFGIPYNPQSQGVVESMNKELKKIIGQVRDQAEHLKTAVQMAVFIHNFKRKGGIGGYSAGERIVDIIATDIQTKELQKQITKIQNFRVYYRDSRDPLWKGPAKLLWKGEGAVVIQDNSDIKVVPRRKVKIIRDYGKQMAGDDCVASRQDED

For orientation: EC50 means the midpoint of the concentration-response curve. Take `COc1cc2c(cc1Cc1cccc(Cl)c1F)c(=O)c(C(=O)O)cn2[C@H](CO)C(C)C`: the values for the EC50 in assay [1], in assay [2] and in assay [3] were 1 nM, 2 nM and 2 nM, respectively.

Take `Cc1nnc(C(=O)NC(C)(C)c2nc(C(=O)NCc3ccc(F)cc3)c(O)c(=O)n2C)o1`: the EC50 in assay [1] came to 2 nM; in assay [2] it was 1.8 nM; in assay [3], 2 nM.

Usually IC50 stands for the concentration that gives 50% inhibition. The Kd is the free concentration of one partner at which half of the binding sites on the other are occupied at equilibrium, for simple one-to-one binding. Read a high Kd as weaker binding. For the compound `O=C(NCc1ccc(F)cc1)c1nc(N2CCCCS2(=O)=O)c2cccnc2c1O`, the EC50 was found to be 2.2 nM in assay [1], 11 nM in [2] and 3 nM in assay [3]. For the same compound, the IC50 in [4] is 13 nM. In assay [4], this compound yielded a dissociation constant Kd of 3.3 nM. Also, the result in assay [5] was inactive. Also, the Activity result in assay [6] and in assay [7] was “Dose-dependent effect” in each case.

For `O=C1Nc2ccc(Cl)cc2[C@@](C#CC2CC2)(C(F)(F)F)O1`, in [5], the outcome was inactive. The Activity result in assay [6] and in assay [7] was “Dose-dependent effect” in each case.

Regarding `Cn1c(=O)c(C(=O)NCCO)c(O)c2ncc(Cc3ccc(F)cc3)cc21` [GSK-364735], the result in assay [8], in assay [15], in assay [17], in assay [5], in assay [20] and in assay [24] was inactive. The EC50 worked out at 1.7 nM in assay [1], 5 nM in assay [2], 2 nM in assay [3] and 42 nM in assay [23]. In addition, the IC50 in assay [9] was found to be 2.2 nM; in assay [4] it was 11 nM; in assay [19], 2 nM; in assay [21], 7.8 nM. The “fold change (FC)” value was determined as 1.4 in [10]; 1.2 in [12]; 1.7 in assay [13]; 1.4 in assay [14]; 0.8 in [16]; 1 in [18]. Besides, the “fold change (FC)” value in assay [22] stood at 3.7. This compound also gave a Kd in assay [11] of 26 nM. Besides, the Activity entry in assay [6] and in assay [7] was “Dose-dependent effect” throughout.

For the origin of these results see ChEMBL document CHEMBL1255253, “The naphthyridinone GSK364735 is a novel, potent human immunodeficiency virus type 1 integrase inhibitor and antiretroviral” (Antimicrob Agents Chemother, 2008).
